Test results from ChEMBL document CHEMBL1145125, “Simple, intuitive calculations of free energy of binding for protein-ligand complexes. 2. Computational titration and pH effects in molecular models of neuraminidase-inhibitor complexes” (J Med Chem, 2003).

Assay: In vitro inhibitory activity against neuraminidase
Design: species or system unidentified influenza virus

| Structure (SMILES) | Ki [µM] | IC50 [µM] |
| --- | --- | --- |
| CC(=O)N[C@H]1[C@H]([C@H](O)[C@H](O)CN)OC(C(=O)O)=C[C@@H]1N | 15 |  |
| CC(=O)N[C@H]1[C@H]([C@H](O)[C@H](O)CO)OC(C(=O)O)=C[C@@H]1N | 0.04 |  |
| CC(=O)N[C@H]1[C@H]([C@H](O)[C@H](O)CO)OC(C(=O)O)=C[C@@H]1O [NEU5AC2EN] | 4 |  |
| CC(=O)Nc1c(O)cc(C(=O)O)cc1[N+](=O)[O-] |  | 750 |
| CC(=O)N[C@H]1[C@H]([C@H](O)[C@H](O)CN)OC(C(=O)O)=C[C@@H]1O | 400 |  |
| CCCN(CCc1ccccc1)C(=O)[C@@H]1OC(C(=O)O)=C[C@H](N)[C@H]1NC(C)=O |  | 3.6 |
| CC(=O)Nc1c(N)cc(C(=O)O)cc1O |  | > 10 |
| CC(=O)Nc1ccc(C(=O)O)cc1N |  | > 10 |
